The text below walks through data of PMC6067006, “Functionality of Redox-Active Cysteines Is Required for Restriction of Retroviral Replication by SAMHD1” (Cell reports, 2018).

Common to all, as to test: NMR-based dNTPase assay, activation by GTP
What all share (assay type): biochemical

In experiment [1] the target is T1, SAMHD1_114–626 (HD domain construct of SAMHD1) (Homo sapiens, UniProt Q9Y3Z3).
T1 construct: HD domain construct, residues 114-626, bacterial expression; nucleotide-dependent homotetramer; 10 cysteines
T1 sequence (Q9Y3Z3 114-626): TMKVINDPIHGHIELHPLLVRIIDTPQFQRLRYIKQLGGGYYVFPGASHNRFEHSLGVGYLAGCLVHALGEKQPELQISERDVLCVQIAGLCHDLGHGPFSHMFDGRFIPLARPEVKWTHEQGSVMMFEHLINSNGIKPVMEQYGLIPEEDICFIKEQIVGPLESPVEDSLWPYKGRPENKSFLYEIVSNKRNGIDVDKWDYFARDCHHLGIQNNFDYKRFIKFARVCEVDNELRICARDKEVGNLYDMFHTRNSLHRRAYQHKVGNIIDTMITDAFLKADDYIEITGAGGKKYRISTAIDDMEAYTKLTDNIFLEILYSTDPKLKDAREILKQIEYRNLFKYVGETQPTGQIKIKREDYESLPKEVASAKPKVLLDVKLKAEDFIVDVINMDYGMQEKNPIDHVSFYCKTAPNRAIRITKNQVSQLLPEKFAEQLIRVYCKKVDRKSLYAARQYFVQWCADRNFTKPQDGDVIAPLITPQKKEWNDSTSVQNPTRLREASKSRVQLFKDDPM
The method, then:
NMR-based dNTPase assay, activation by GTP on SAMHD1_114–626 (HD domain construct of SAMHD1) | kcat and EC50^GTP parameters were determined by non-linear fitting

Experiment [2] addresses T2, SAMHD1_114–626 (HD domain construct of SAMHD1) (Homo sapiens, UniProt Q9Y3Z3, C522S).
T2 construct: HD domain construct, residues 114-626, bacterial expression; nucleotide-dependent homotetramer; 10 cysteines
From the text: NMR-based dNTPase assay, activation by GTP on SAMHD1_114–626 (HD domain construct of SAMHD1) | properties of the C522S mutant were indistinguishable from those of the WT protein

Experiment [3] concerns the target T3, SAMHD1_114–626 (HD domain construct of SAMHD1) (Homo sapiens, UniProt Q9Y3Z3, C350S).
T3 construct: HD domain construct, residues 114-626, bacterial expression; nucleotide-dependent homotetramer; 10 cysteines
The source says:
(§1) NMR-based dNTPase assay, activation by GTP on SAMHD1_114–626 (HD domain construct of SAMHD1) | EC50) values for GTP-mediated activation for C341S and C350S were also higher

Experiment [4] concerns the target T4, SAMHD1_114–626 (HD domain construct of SAMHD1) (Homo sapiens, UniProt Q9Y3Z3, C341S).
T4 construct: HD domain construct, residues 114-626, bacterial expression; nucleotide-dependent homotetramer; 10 cysteines
Source text: as §1

T4 sequence (Q9Y3Z3 114-626 C341S): as the sequence (Q9Y3Z3 114-626) above, with C228S counted along it
T2 sequence (Q9Y3Z3 114-626 C522S): as the sequence (Q9Y3Z3 114-626) above, with C409S counted along it
T3 sequence (Q9Y3Z3 114-626 C350S): as the sequence (Q9Y3Z3 114-626) above, with C237S counted along it

On to `Nc1nc2c(ncn2[C@@H]2O[C@H](COP(=O)(O)OP(=O)(O)OP(=O)(O)O)[C@@H](O)[C@H]2O)c(=O)[nH]1` [GTP], for which the EC50 – broadly, the concentration at which the effect is half-maximal – in experiment [1] is 3.9 µM; in experiment [2], 4.8 µM; in experiment [3], 8.1 µM; in experiment [4] it was 44.4 µM.
